# Reference: PubChem BioAssay AID2305 (GlaxoSmithKline (GSK), 2010)
# “And” between values parts separate entries of the source, which are not always exact repeats. Identical values can stand only once.
# Tested on: P. falciparum 3D7 growth, pLDH absorbance
# Assay: blood-stage malaria parasite growth potency – strain 3D7, dose response (AID 2305)
row,SMILES,IC50
1,CCCc1cc(=O)[nH]c(-n2nc(C)cc2NC(=O)CC(c2ccccc2)c2ccccc2)n1,620 nM
2,CN(Cc1ccncc1)C(Cc1ccccc1)C1CCN(Cc2ccc(O)c(Cl)c2)CC1 (stereo not drawn),750 nM
3,CC(C)(C)c1nn(-c2ccccc2)c2[nH]c(=O)c(CNC3CCCCC3)cc12,1250 nM
4,Cc1ccc(C2(CN3CCC(NC(=O)c4[nH]ncc4Cl)CC3)CCCCC2)cc1,320 nM
5,O=C(/C=C/c1ccc(Cl)c(Cl)c1)NCCCCCN1CC[C@H](NC(=O)c2sc3ccccc3c2Cl)C1,810 nM
6,C=CC[C@@H](C(=O)OCC)[C@@H]1[C@@H](N(CC=C)C(=O)OC(C)(C)C)CCN1C(=O)OCc1ccccc1,960 nM
7,CCc1ccc(CN2CCC(CNC(=O)c3cc(-c4cccc(F)c4)cs3)C2)cc1 (stereo not drawn),1360 nM
8,CNC(=O)c1cnc(Nc2ccc(N3CCOCC3)cc2)nc1Nc1cccc(OC)c1,760 nM
9,O=C(NC1CCCc2ccccc21)[C@@H]1CCCN1C(=O)c1ccc(O)c(-c2cccc([N+](=O)[O-])c2)c1 (stereo partly drawn),680 nM
10,O=[N+]([O-])c1ccc2nccnc2c1,1070 nM
11,Cc1cccc(Cl)c1S(=O)(=O)Nc1cccc(CCN2CCC(N3CCCCC3)CC2)c1,1110 nM
12,COc1ccc(CNc2cc(C)nc3sc4c(c23)CCC2(C4)OCCO2)cc1,950 nM
13,O=C(Nc1ccc2c(c1)CCN2C1CCN(Cc2cccc(F)c2F)C1)c1ccco1 (stereo not drawn),790 nM
14,Oc1cccc(Nc2ccnc3cc(-c4ccccn4)ccc23)c1,740 nM
15,CCOc1ccc2nc3cc([N+](=O)[O-])ccc3c(N)c2c1,140 nM
16,CCNC(=O)Nc1ccc(-c2cccc(-c3nc4c(C)cccc4[nH]3)c2)cc1,760 nM
17,O=c1cc(NCC2(CNCc3cn(Cc4ccccc4)c4ccccc34)CCCCC2)[nH]c2ccccc12,680 nM
18,Cc1noc(C)c1-c1ccc2c(Nc3ccc(Cl)cc3)c(C(N)=O)cnc2c1,830 nM
19,CCN1CC=C(c2c[nH]c3ccccc23)CC1,1030 nM
20,COc1cccc(CCc2nc3c(N4CCC(Cc5ccccc5)CC4)cccc3n2CC2CNCCO2)c1 (stereo not drawn),800 nM
21,Cc1cc(Cc2ccc(S(=O)(=O)c3cc4c(cc3O)CCN(C)CC4)cc2)ccc1Cl,910 nM
22,NC(N)=NN=CC(=O)Nc1cc([N+](=O)[O-])cc([N+](=O)[O-])c1,630 nM
23,CCNc1cc(C(=O)N[C@@H](Cc2ccccc2)[C@H](O)CN[C@@H]2CCc3ccccc32)cc(N2CCCCS2(=O)=O)c1,550 nM
24,O=C(/C=C/c1ccc(CNCCN2CCOCC2)cc1)NCCc1ccccc1,860 nM
25,O=C(N[C@H]1CCCC[C@H]1C(=O)O)c1ccccc1,780 nM
26,C=CCNc1cc(-c2ccccn2)nc(-c2ccccn2)n1,470 nM

row,SMILES,IC50
1,Cc1noc(C)c1-c1ccc2c(Nc3ccccc3C(C)(C)C)c(C(=O)NCc3cccc4ccccc34)cnc2c1,940 nM
2,CC[C@H](N=C(Nc1ccc(-c2ccccc2)cc1)Nc1ccc(C#N)cc1O)c1ccccc1,760 nM
3,O=C(Cc1cccc(Cl)c1)N1CCc2cc3nccc(N4CCN5CCC[C@H]5C4)c3cc21,850 nM
4,NC(N)=Nc1nc(-c2ccc(N=C(N)N3CCC[C@H]3CN3CCCC3)cc2)cs1,1110 nM
5,O=C(/C=C/c1ccc(Cl)c(Cl)c1)NC1CCC(N2CCC(c3c[nH]c4ccc(O)cc34)CC2)CC1 (stereo not drawn),920 nM
6,C=CCOC(=O)N1CCC(CNCc2ccc(-c3cccc(-c4nc5ccccc5[nH]4)c3)cc2)C1 (stereo not drawn),250 nM
7,c1ccc(OCCCCN2CCCCC2)cc1,540 nM
8,COc1ccc(-c2nc(NC(=O)CSc3ccc([N+](=O)[O-])cc3)sc2C)cc1,140 nM
9,Cc1cc(N)c2cc(NC(=O)/C=C/c3ccccc3)ccc2n1,760 nM
10,CCc1c(C(=O)NC2CCC(N3CCC(c4ccccc4OC)CC3)CC2)[nH]c2ccc(OC)cc12 (stereo not drawn),1110 nM
11,O=P(O)(O)Oc1c(Br)cc(Br)cc1-c1cc(Br)cc(Br)c1O,170 nM
12,CC(Nc1nncc(-c2cccc(F)c2)n1)c1ccc(F)cc1 (stereo not drawn),790 nM
13,COc1ccc2ncc(C#N)c(CCN3CCC(NCc4ccc5c(c4)OCCO5)CC3)c2c1,910 nM
14,CC(C)OC(=O)c1ccccc1S(N)(=O)=O,670 nM
15,CC(C)(CN)c1nc(-c2ccc(Cl)c(O)c2)c(-c2ccnc(N)n2)[nH]1,980 nM
16,COc1ccc(Nc2nc(NC3CCCC3)cc(-c3ccc(OC)cc3)n2)cc1,1030 nM
17,Cc1[nH]c(C)c(-c2ccc(Oc3ccc(Cl)cc3)c(Cl)c2)c(=O)c1Br,490 nM
18,NC1=NC(c2ccccc2)(c2cccc(O)c2)C(=O)N1CCCc1ccccc1 (stereo not drawn),1230 nM and 840 nM
19,NC(=O)NC(=O)C=Cc1ccco1,150 nM
20,CC(C)(C)c1ccc(NC(=O)c2ccc(CN3CCCN(Cc4ccc(F)cc4)CC3)cc2)cc1,1110 nM
21,O=C(Nc1ccc(S(=O)(=O)N2CCCCC2)cc1)c1cc(-c2cc(Cl)ccc2O)n[nH]1,810 nM
22,COc1ccccc1N1CCN(c2cccc3c2nc(-c2cncc(C#N)c2)n3CCNCc2ccccc2)CC1,710 nM
23,COc1ccc2nccc(NN=Cc3ccncc3)c2c1,580 nM
24,O=C(/C=C/c1ccc(Cl)c(Cl)c1)NCCCCCN1CCN(C(=O)Nc2ccc(OC(F)F)cc2)CC1,950 nM
25,NC(N)=Nc1nc(CCCCCCCCc2csc(N=C(N)N)n2)cs1,600 nM
26,CCc1ccc(CN2CCC(CNC(=O)c3cc(-c4ccccc4F)cs3)C2)cc1 (stereo not drawn),900 nM

row,SMILES,IC50
1,CC(C)(CN)c1cc(-c2ccc(Cl)c(O)c2)c(-c2ccncc2)o1,1140 nM
2,COc1ccc(C2CCN(CCCCNC(=O)c3ccc(NC(=O)c4ccc(Cl)cc4)cc3)CC2)c(OC)c1,570 nM
3,CC1CN(C(=O)c2sc3ccccc3c2Cl)CC(C)O1 (stereo not drawn),90 nM
4,Cc1cnccc1/C=C/c1cccc(OCCCN2CCc3ccc(S(C)(=O)=O)cc3CC2)c1,610 nM
5,Cc1c(C(=O)N2CCCC(C(F)(F)F)C2)sc2cccc(F)c12 (stereo not drawn),600 nM
6,CCCCN(CCCC)CCCCNc1c2ccc(Cl)cc2nc2ccc(OC)cc12,180 nM
7,Cc1c(CNCCCNc2nc3cscc3[nH]2)sc(C(F)F)c1Br,940 nM
8,Cc1cccc2[nH]c(-c3ccc(-c4cccc(CNCc5cccc(N)c5)c4)s3)nc12,520 nM
9,N#Cc1cccc(C(=O)Nc2ccc(-c3nc4ccccc4[nH]3)cc2)c1,540 nM
10,CC(=O)Nc1ccc(Nc2cc(C)nc(Nc3ccc(NC(C)=O)cc3)n2)cc1,890 nM
11,COc1cc2nc(NCCc3ccccc3)nc(NC(C)c3ccccc3)c2cc1OC (stereo not drawn),280 nM
12,CCc1cn2c3c(cc(C(=O)N[C@@H](Cc4cccc(Cl)c4)[C@H](O)CNC4CC4)cc13)N(C)S(=O)(=O)CC2,150 nM
13,CCN(CC)CCN(Cc1ccc(-c2ccc(C(F)(F)F)cc2)cc1)C(=O)Cn1c(CCC2CCCCC2)nc(=O)c2ccccc21,1390 nM
14,COc1ccc(CN2CCC(CNCCc3ccccc3Cl)CC2)cc1,1110 nM
15,COc1ccc2c(c1CCNCCCCNCCc1c(OC)ccc3c1CCCC3)CCCC2,380 nM
16,S=C(NCCN1CCOCC1)Nc1ccccc1,1020 nM
17,N#Cc1ccc2[nH]cc(-c3cn4cc(SC5CCCC5)ccc4n3)c2c1,940 nM
18,CCOc1ccc2c(NN=Cc3ccccn3)cc(C)nc2c1,860 nM
19,CCCCN1CCN(CCCNc2c3ccccc3nc3ccccc23)CC1,510 nM
20,CNCc1cccc2[nH]c(-c3ccc(Cc4cc(Cl)ccc4OCC(C)C)o3)nc12,900 nM
21,Cc1c(C(=O)[C@@H]2C[C@H]2CN2CCC(N3CCCC3)CC2)sc2ccccc12,1400 nM
22,COc1ccc(NS(=O)(=O)c2ccc(C(=O)Nc3ccc(C(F)(F)F)cc3)cc2)cc1N1CCN(CC2CC2)CC1,830 nM
23,Cc1cc(CN2CC[C@H](NC(=O)c3ccc(Cl)c(Cl)c3)C2)ccc1OC1CCN(Cc2ccccc2)CC1,910 nM
24,COc1ccc(NC(=O)[C@H](Cc2ccccc2)Nc2cc(C)nc(NCCc3cccs3)n2)cc1,750 nM
25,CN(C)Cc1c(O)ccc2[nH]c(-c3ccc(OC(F)(F)F)cc3)nc12,730 nM
26,O=C(Nc1cccc(C(F)(F)F)c1)c1cccc2[nH]c(C(F)(F)F)nc12,640 nM

row,SMILES,IC50
1,Cc1cc(N)nc2ccc(-c3ccc(CN)cc3)cc12,620 nM
2,CO/C(=C\C=C\c1cc2cc(Cl)c(Cl)cc2[nH]1)C(=O)NCCCN1CCN(c2ccncc2)CC1,730 nM
3,CCn1c(Sc2ccc(C#N)c([N+](=O)[O-])c2)nnc1-c1ccc(Cl)cc1,550 nM
4,CCCOc1ccccc1-c1nc2[nH]c3c(c2c(=O)[nH]1)CCN(C)C3,370 nM
5,CC(C)CNC(=O)c1cncc(-c2ccc(CNCCCc3ccccc3)cc2)c1,770 nM
6,O=C(Nc1cccc(C(F)(F)F)c1)c1cccc(S(=O)(=O)NCC2CCCN2CC2CCCCC2)c1 (stereo not drawn),1110 nM
7,NC(=O)COc1cccc2c1CCN(CCN1CCC(NC(=O)c3ccc(-c4ccc(Cl)cc4)cc3)CC1)C2,840 nM
8,CCN1CCN(c2cc(C)c3cc(NC(=O)c4cccc(C(F)(F)F)c4)ccc3n2)CC1,570 nM
9,CNCCNc1nccc(N2CCc3ncnc(Nc4ccc(OCc5cccc(F)c5)c(Cl)c4)c3C2)n1,200 nM
10,Cc1c2ccncc2c(C)c2c1[nH]c1ccccc12,800 nM
11,Cc1cc(NC(=O)c2ccsc2)ccc1OC1CCN(Cc2ccc(F)cc2)CC1,1220 nM
12,Cc1cccc(NC(=S)NC2CCN(CCCCCNC(=O)/C=C/c3ccc(Cl)c(Cl)c3)CC2)c1,950 nM
13,Cc1ccc(Nc2ccnc(Nc3ccc(C)c(F)c3)n2)cc1O,760 nM
14,CCOC(=O)Cc1nc(N)c(C(=O)OCC)[nH]1,650 nM
15,CCOc1cc(CC)ccc1C1CCN(CCCCNC(=O)c2ccc(NC(=O)c3ccc(C#N)cc3)cc2)CC1,500 nM
16,NC(N)=NC(=O)Nc1cc(Br)c(Cl)c(Br)c1,770 nM
17,CCC(C)NS(=O)(=O)c1ccc2nc(Nc3cccc(SC)c3)n(C(C)C(C)C)c2c1 (stereo not drawn),500 nM
18,CC(C)(C)NCCN(Cc1ccc(-c2ccc(C(F)(F)F)cc2)cc1)C(=O)Cn1c(SCc2ccc(F)cc2)nc(=O)c2c1CCC2,860 nM
19,O=C(NC1CC1)c1ccc(N2CCCC(COc3ccc4c(c3)CCCC4)C2)nc1 (stereo not drawn),1080 nM
20,O=C(Nc1cccc(-c2cccc(-c3nc4ccccc4[nH]3)c2)c1)c1cccnc1,650 nM
21,O=S(=O)(c1cccc(Cl)c1F)N(CCC(O)(C(F)(F)F)C(F)(F)F)Cc1cccc(O)c1,920 nM
22,COc1cc2nc(-c3ccccc3)nc(N3CCN(C(=O)c4ccco4)CC3)c2cc1OC,1410 nM
23,CC[C@H]1CN2CC[C@@H]1C[C@H]2[C@H](O)c1cc(N2CCC(CO)CC2)nc2ccc(OC)cc12,160 nM
24,COc1cc2nc(NCCc3cccc(Cl)c3)nc(NCc3ccccc3)c2cc1OC,120 nM
25,COc1cc(Cc2cnc3nc(N)nc(N)c3c2C)cc(OC)c1OC,60 nM
